Data reported in PubChem BioAssay (NCI).
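Tested at 5 concentrations; 48 h exposure; 96-well plates; endpoints linearly interpolated, else capped at highest concentration. GI50: concentration for 50% inhibition of growth. TGI: total growth inhibition.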

Columns and labels:
Test in all cases: growth of human tumour cells (NCI), 48 h
OVCAR-3 ovarian = tested on: OVCAR-3 ovarian
SN12C renal = tested on: SN12C renal
ACHN renal = tested on: ACHN renal
SNB-19 CNS = tested on: SNB-19 CNS
HT29 colon = tested on: HT29 colon
MALME-3M melanoma = tested on: MALME-3M melanoma
MDA-MB-435 = tested on: MDA-MB-435
M14 melanoma = tested on: M14 melanoma
KM12 colon = tested on: KM12 colon
TK-10 renal = tested on: TK-10 renal
LOX IMVI melanoma = tested on: LOX IMVI melanoma
SF-268 CNS = tested on: SF-268 CNS
K-562 leukemia = tested on: K-562 leukemia
OVCAR-5 ovarian = tested on: OVCAR-5 ovarian
UO-31 renal = tested on: UO-31 renal
SK-OV-3 ovarian = tested on: SK-OV-3 ovarian
MCF7 breast = tested on: MCF7 breast
T-47D breast = tested on: T-47D breast
NCI-H226 lung = tested on: NCI-H226 lung
HCT-116 colon = tested on: HCT-116 colon
NCI/ADR-RES ovarian = tested on: NCI/ADR-RES ovarian
COLO 205 colon = tested on: COLO 205 colon
SNB-75 CNS = tested on: SNB-75 CNS
UACC-62 melanoma = tested on: UACC-62 melanoma
HS 578T breast = tested on: HS 578T breast
A498 renal = tested on: A498 renal
U251 CNS = tested on: U251 CNS
MOLT-4 leukemia = tested on: MOLT-4 leukemia
HOP-62 NSCLC = tested on: HOP-62 NSCLC
CCRF-CEM leukemia = tested on: CCRF-CEM leukemia
A549 NSCLC = tested on: A549 NSCLC
SR leukemia = tested on: SR leukemia
HCC-2998 colon = tested on: HCC-2998 colon
MDA-MB-231 breast = tested on: MDA-MB-231 breast
RXF 393 renal = tested on: RXF 393 renal
RPMI-8226 leukemia = tested on: RPMI-8226 leukemia
DU-145 prostate = tested on: DU-145 prostate
PC-3 prostate = tested on: PC-3 prostate
SK-MEL-5 melanoma = tested on: SK-MEL-5 melanoma
SW-620 colon = tested on: SW-620 colon
HCT-15 colon = tested on: HCT-15 colon
OVCAR-4 ovarian = tested on: OVCAR-4 ovarian
NCI-H23 lung = tested on: NCI-H23 lung
SK-MEL-28 melanoma = tested on: SK-MEL-28 melanoma
NCI-H460 lung = tested on: NCI-H460 lung
SF-539 CNS = tested on: SF-539 CNS
SF-295 CNS = tested on: SF-295 CNS
HOP-92 NSCLC = tested on: HOP-92 NSCLC
EKVX NSCLC = tested on: EKVX NSCLC
HL-60(TB) leukemia = tested on: HL-60(TB) leukemia
786-0 renal = tested on: 786-0 renal
BT-549 breast = tested on: BT-549 breast
OVCAR-8 ovarian = tested on: OVCAR-8 ovarian
CAKI-1 renal = tested on: CAKI-1 renal
IGROV1 ovarian = tested on: IGROV1 ovarian
SK-MEL-2 melanoma = tested on: SK-MEL-2 melanoma
NCI-H522 lung = tested on: NCI-H522 lung
UACC-257 melanoma = tested on: UACC-257 melanoma

CCOC(=O)c1c(NCC(=O)Nc2cccc([N+](=O)[O-])c2)sc2c1CCCC2
GI50 (OVCAR-3 ovarian): 289 nM | TGI (OVCAR-3 ovarian): 770 nM | GI50 (SN12C renal): 256 nM | TGI (SN12C renal): 793 nM | GI50 (ACHN renal): 281 nM | TGI (ACHN renal): 795 nM | GI50 (SNB-19 CNS): 306 nM | TGI (SNB-19 CNS): 1080 nM | GI50 (HT29 colon): 273 nM | TGI (HT29 colon): 1060 nM | GI50 (MALME-3M melanoma): 181 nM | TGI (MALME-3M melanoma): 407 nM | GI50 (MDA-MB-435): 328 nM | TGI (MDA-MB-435): 1090 nM | GI50 (M14 melanoma): 183 nM | TGI (M14 melanoma): 361 nM | GI50 (KM12 colon): 315 nM | TGI (KM12 colon): 966 nM | GI50 (TK-10 renal): 256 nM | TGI (TK-10 renal): 782 nM | GI50 (LOX IMVI melanoma): 195 nM | TGI (LOX IMVI melanoma): 405 nM | GI50 (SF-268 CNS): 354 nM | TGI (SF-268 CNS): 1690 nM | GI50 (K-562 leukemia): 278 nM | GI50 (OVCAR-5 ovarian): 270 nM | TGI (OVCAR-5 ovarian): 779 nM | GI50 (UO-31 renal): 198 nM | TGI (UO-31 renal): 583 nM | GI50 (SK-OV-3 ovarian): 294 nM | TGI (SK-OV-3 ovarian): 856 nM | GI50 (MCF7 breast): 272 nM | TGI (MCF7 breast): 974 nM | GI50 (T-47D breast): 728 nM | TGI (T-47D breast): 3120 nM | GI50 (NCI-H226 lung): 194 nM | TGI (NCI-H226 lung): 471 nM | GI50 (HCT-116 colon): 263 nM | TGI (HCT-116 colon): 805 nM | GI50 (NCI/ADR-RES ovarian): 267 nM | TGI (NCI/ADR-RES ovarian): 762 nM | GI50 (COLO 205 colon): 274 nM | TGI (COLO 205 colon): 774 nM | GI50 (SNB-75 CNS): 214 nM | TGI (SNB-75 CNS): 1690 nM | GI50 (UACC-62 melanoma): 173 nM | TGI (UACC-62 melanoma): 380 nM | GI50 (HS 578T breast): 264 nM | TGI (HS 578T breast): 773 nM | GI50 (A498 renal): 194 nM | TGI (A498 renal): 392 nM | GI50 (U251 CNS): 284 nM | TGI (U251 CNS): 979 nM | GI50 (MOLT-4 leukemia): 246 nM | TGI (MOLT-4 leukemia): 4160 nM | GI50 (HOP-62 NSCLC): 416 nM | TGI (HOP-62 NSCLC): 1990 nM | GI50 (CCRF-CEM leukemia): 253 nM | GI50 (A549 NSCLC): 301 nM | TGI (A549 NSCLC): 2680 nM | GI50 (SR leukemia): 276 nM | GI50 (HCC-2998 colon): 207 nM | TGI (HCC-2998 colon): 499 nM | GI50 (MDA-MB-231 breast): 280 nM | TGI (MDA-MB-231 breast): 1010 nM | GI50 (RXF 393 renal): 182 nM | TGI (RXF 393 renal): 360 nM | GI50 (RPMI-8226 leukemia): 310 nM | TGI (RPMI-8226 leukemia): 1060 nM | GI50 (DU-145 prostate): 316 nM | TGI (DU-145 prostate): 1360 nM | GI50 (PC-3 prostate): 250 nM | TGI (PC-3 prostate): 726 nM | GI50 (SK-MEL-5 melanoma): 182 nM | TGI (SK-MEL-5 melanoma): 354 nM | GI50 (SW-620 colon): 315 nM | TGI (SW-620 colon): 1210 nM | GI50 (HCT-15 colon): 265 nM | TGI (HCT-15 colon): 1330 nM | GI50 (OVCAR-4 ovarian): 338 nM | TGI (OVCAR-4 ovarian): 3730 nM | GI50 (NCI-H23 lung): 217 nM | TGI (NCI-H23 lung): 722 nM | GI50 (SK-MEL-28 melanoma): 235 nM | TGI (SK-MEL-28 melanoma): 596 nM | GI50 (NCI-H460 lung): 265 nM | TGI (NCI-H460 lung): 707 nM | GI50 (SF-539 CNS): 242 nM | TGI (SF-539 CNS): 644 nM | GI50 (SF-295 CNS): 310 nM | TGI (SF-295 CNS): 1180 nM | GI50 (HOP-92 NSCLC): 209 nM | TGI (HOP-92 NSCLC): 696 nM | GI50 (EKVX NSCLC): 718 nM | TGI (EKVX NSCLC): 3640 nM | GI50 (HL-60(TB) leukemia): 280 nM | TGI (HL-60(TB) leukemia): 4200 nM | GI50 (786-0 renal): 271 nM | TGI (786-0 renal): 840 nM | GI50 (BT-549 breast): 211 nM | TGI (BT-549 breast): 605 nM | GI50 (OVCAR-8 ovarian): 351 nM | TGI (OVCAR-8 ovarian): > 100000 nM | GI50 (CAKI-1 renal): 251 nM | TGI (CAKI-1 renal): 735 nM | GI50 (IGROV1 ovarian): 236 nM | TGI (IGROV1 ovarian): 738 nM | GI50 (SK-MEL-2 melanoma): 436 nM | TGI (SK-MEL-2 melanoma): 2290 nM | GI50 (NCI-H522 lung): 226 nM | TGI (NCI-H522 lung): 739 nM | GI50 (UACC-257 melanoma): 401 nM | TGI (UACC-257 melanoma): 2130 nM
